# Experiment: Evaluation of water solubility of deprotected pterostilbene linked bodies
# Assay type: physicochemical
# Conditions: for water solubility compared to the hardly water-soluble F1: ion-exchanged water, solubility threshold could not be measured because the compound was extremely water-soluble
# Procedure: The deprotected pterostilbene linked body obtained in Examples were evaluated for water solubility using the following method. In FIGs 1 and 2, the numbers in the ellipses for each compound represent a level of water solubility as a molar ratio, with the water solubility of F1 (pterostilbene) (21 mg (0.0819 mmol) dissolved in 1 liter) being set at 1.0. The water solubility of F1 (pterostilbene) was determined using the value described in Sarah J. Bethune et al., Cryst. Growth Des. 2011, 11, 2817-2823. The water solubility of F1 glycoside (pterostilbene monoglycoside) was determined using the value described in Jose L. Gonzalez-Alfonso et al., Molecules 2018, 23, 1271.
# Into a round-bottom flask was weighed 1.0 g of the compound and 100 mL of ion-exchanged water in sequence and the mixture was heated with a heat gun for about 1 minute, taking care not to boil the mixture, and then cooled to room temperature and allowed to stand. After 24 hours, the residue was removed by filtration, and the filtrate was concentrated under reduced pressure. A water solubility of each compound was calculated from the weight of the compound recovered from the filtrate.
# In a round-bottom flask, a solution was prepared the amounts of the compound and ion-exchanged water shown in Figure 1, and a water solubility of the compound was calculated. Because the compound was extremely water-soluble, a water solubility threshold could not be measured. However, compared to the hardly water-soluble F1, its water solubility was 2×10^4 times or more, that is, extremely higher.
SMILES,water solubility compared to the hardly water-soluble F1,level of water solubility as a molar ratio (water solubility of F1 (pterostilbene) set at 1.0 (reference))
"COc1cc(/C=C/c2ccc(OCC(COCC(O)CO)(COCC(O)CO)COCC(O)CO)cc2)cc(OC)c1 (stereo not drawn) [H139, (E)-3,3'-((2-((2,3-dihydroxypropoxy)methyl)-2-((4-(3,5-dimethoxystyryl)phenoxy)methyl)propane-1,3-diyl)bis(oxy))bis(propane-1,2-diol)]",≥ 2×10^4 times,–
"COc1cc(/C=C/c2ccc(OCC(CO)(CO)COCC(COC(CO)CO)(COC(CO)CO)COC(CO)CO)cc2)cc(OC)c1 [J129, (E)-2,2'-((2-(((1,3-dihydroxypropan-2-yl)oxy)methyl)-2-((3-(4-(3,5-dimethoxystyryl)phenoxy)-2,2-bis(hydroxymethyl)propoxy)methyl)propane-1,3-diyl)bis(oxy))bis(propane-1,3-diol)]",≥ 2×10^4 times,–
"COc1cc(/C=C/c2ccc(OCC(CO)(CO)COC(COCC(O)CO)COCC(O)CO)cc2)cc(OC)c1 (stereo not drawn) [J239, (E)-3,3'-((2-(3-(4-(3,5-dimethoxystyryl)phenoxy)-2,2-bis(hydroxymethyl)propoxy)propane-1,3-diyl)bis(oxy))bis(propane-1,2-diol)]",≥ 2×10^4 times,–
"COc1cc(/C=C/c2ccc(OCC(CO)(CO)COCC(COCC(O)CO)(COCC(O)CO)COCC(O)CO)cc2)cc(OC)c1 (stereo not drawn) [J139, (E)-3,3'-((2-((2,3-dihydroxypropoxy)methyl)-2-((3-(4-(3,5-dimethoxystyryl)phenoxy)-2,2-bis(hydroxymethyl)propoxy)methyl)propane-1,3-diyl)bis(oxy))bis(propane-1,2-diol)]",≥ 2×10^4 times,–
"COc1cc(/C=C/c2ccc(OCC(CO)(CO)COCC(COCC(CO)(CO)CO)(COCC(CO)(CO)CO)COCC(CO)(CO)CO)cc2)cc(OC)c1 [J119, (E)-2,2'-(((2-((3-(4-(3,5-dimethoxystyryl)phenoxy)-2,2-bis(hydroxymethyl)propoxy)methyl)-2-((3-hydroxy-2,2-bis(hydroxymethyl)propoxy)methyl)propane-1,3-diyl)bis(oxy))bis(methylene))bis(2-(hydroxymethyl)propane-1,3-diol)]",≥ 2×10^4 times,–
"COc1cc(/C=C/c2ccc(OCC(COC(CO)CO)(COC(CO)CO)COC(CO)CO)cc2)cc(OC)c1 [H129, (E)-2,2'-((2-(((1,3-dihydroxypropan-2-yl)oxy)methyl)-2-((4-(3,5-dimethoxystyryl)phenoxy)methyl)propane-1,3-diyl)bis(oxy))bis(propane-1,3-diol)]",≥ 2×10^4 times,–
"COc1cc(/C=C/c2ccc(OCC(CO)(CO)COC(COC(CO)CO)COC(CO)CO)cc2)cc(OC)c1 [J229, (E)-2,2'-((2-(3-(4-(3,5-dimethoxystyryl)phenoxy)-2,2-bis(hydroxymethyl)propoxy)propane-1,3-diyl)bis(oxy))bis(propane-1,3-diol)]",≥ 2×10^4 times,–
"COc1cc(/C=C/c2ccc(O)cc2)cc(OC)c1 [F1, (E)-4-(3,5-dimethoxystyryl)phenol, reference compound]",–,1.0
"COc1cc(/C=C/c2ccc(OCC(CO)(CO)COC(COCC(CO)(CO)CO)COCC(CO)(CO)CO)cc2)cc(OC)c1 [J219, (E)-2,2'-(((2-(3-(4-(3,5-dimethoxystyryl)phenoxy)-2,2-bis(hydroxymethyl)propoxy)propane-1,3-diyl)bis(oxy))bis(methylene))bis(2-(hydroxymethyl)propane-1,3-diol)]",≥ 2×10^4 times,–

# From patent publication EP4752139A1, “BRANCHED MULTI-HYDROXYL-PROTECTING OLIGOMER, LINKED BODY BONDED THEREWITH, AND BRANCHED MULTI-HYDROXYL OLIGOMER OBTAINED BY DEPROTECTING SAID LINKED BODY” (Tomoike Bio Ltd., priority 2023, dated 2025)
